According to patent US11339130B1 (Blade Therapeutics, Inc., priority 2016, dated 2022):
Like-named read-outs stand apart in the source and are kept apart here.

How the values were obtained:
[1] = test system: Bleomycin-induced pulmonary fibrosis; assay: Bleomycin-induced pulmonary fibrosis in mice (14 d); type: in vivo; set-up: concentration or dose not given beside the values
Description: The method for inducing pulmonary fibrosis in mice is described in Current Protocols in Pharmacology: 5.46.1, entitled “Mouse Models of Bleomycin-induced Pulmonary Fibrosis”. In order to induce pulmonary fibrosis, 6-8 week old C57B1/6 mice or Wistar rats are instilled once oropharyngeally with ˜1.5 U/kg of bleomycin sulfate (Calbiochem, Billerica, Mass.). Briefly, for oropharyngeal administration of bleomycin, mice or rats are anesthetized with isofluorane and then suspended on its back at a˜60 degree angle on an inclined surface with a rubber band running under the upper incisors. The airway is opened while securing the tongue with one arm of padded forceps and bleomycin is administered into the back of the oral cavity with a syringe. The animal's tongue and mouth were held open until the liquid disappeared from the oral cavity. The animal was then returned to its cage and monitored until fully recovered from the anesthesia. The study is terminated on day 14-28 for oropharyngeally administered bleomycin in mice and rats. All animals are euthanized at the termination of the studies by cervical dislocation for gross necropsy, and blood collected by cardiac puncture. The lungs from each animal are dissected from the animal and weighed. The BAL cells and fluid are collected by lavaging the lung twice with 0.5 ml Hanks Balanced Salt Solution (HBSS; VWR, Radnor, Pa.). After collection of BAL cells and fluid, lungs are dissected and removed from each animal. Whole lungs are inflated with 10% NBF and then fixed in 10% NBF for histology. Severity of fibrosis in the lungs is evaluated using a modified Ashcroft score (Hubner, Biotechniques, 2008) and subjective fibrosis scores. Lung sections were graded by averaging 5 microscopic fields at 20× on an Ashcroft scale as follows: Grade 0=normal lung; Grade 1=minimally detectable thickening of alveolar walls; Grade 2=Mild thickening of alveolar walls. Grade 3=moderate contiguous thickening of walls with fibrous nodules; Grade 4=Thickened septae and confluent fibrotic masses that total less than 10% of microscopic field. Grade 5=increased fibrosis with definite damage to lung structure and formation of fibrous bands or small fibrous masses between 10 and 50% of microscopic field; Grade 6=Large contiguous fibrotic masses consolidating more than 50% of microscopic field. Grade 7=severe distortion of structure and large fibrous areas; Grade 8=total fibrous obliteration of lung within microscopic field. Each slide was examined at 20× magnification and the score for 5 separate representative fields was averaged for each animal. Subjective scores (H&E and Trichrome-stained slides) were evaluated at 2× magnification for an overall assessment of pathologic change. A score of 0=no detectible findings to 5=complete involvement of consolidation. Scores in each group were averaged and standard error was calculated using Excel 2010. Dense, organized inflammatory exudates were scored as fibrosis. Other tissues were evaluated microscopically and scored routinely.

Human Calpain 1/NS1 = target: T1, Human Calpain 1/NS1 (Homo sapiens, UniProt P07384); assay: Calpain inhibition continuous fluorescence (FRET) assay, Human Calpain 1/NS1; type: biochemical; conditions: read-out: Human Calpain 1/NS1 IC50
T1 sequence (P07384 1-714): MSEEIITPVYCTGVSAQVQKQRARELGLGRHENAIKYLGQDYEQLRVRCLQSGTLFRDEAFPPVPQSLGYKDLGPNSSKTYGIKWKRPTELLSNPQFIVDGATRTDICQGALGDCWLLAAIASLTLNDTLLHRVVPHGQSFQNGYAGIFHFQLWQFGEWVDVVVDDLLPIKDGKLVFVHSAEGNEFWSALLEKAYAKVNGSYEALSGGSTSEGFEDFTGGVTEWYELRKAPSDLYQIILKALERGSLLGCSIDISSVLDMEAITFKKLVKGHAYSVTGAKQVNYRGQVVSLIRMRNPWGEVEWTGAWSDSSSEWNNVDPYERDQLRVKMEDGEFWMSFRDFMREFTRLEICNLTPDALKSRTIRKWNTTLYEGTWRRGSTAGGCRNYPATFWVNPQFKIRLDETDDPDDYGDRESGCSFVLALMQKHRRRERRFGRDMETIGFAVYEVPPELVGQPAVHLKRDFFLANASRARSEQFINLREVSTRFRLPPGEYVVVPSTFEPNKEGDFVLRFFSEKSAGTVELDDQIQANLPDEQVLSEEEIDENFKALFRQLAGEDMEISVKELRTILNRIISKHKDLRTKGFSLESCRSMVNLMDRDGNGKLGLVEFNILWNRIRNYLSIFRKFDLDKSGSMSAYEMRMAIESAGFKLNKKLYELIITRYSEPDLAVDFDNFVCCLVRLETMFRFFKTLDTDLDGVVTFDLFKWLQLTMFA
T1 sequence (P04632 1-268 partner): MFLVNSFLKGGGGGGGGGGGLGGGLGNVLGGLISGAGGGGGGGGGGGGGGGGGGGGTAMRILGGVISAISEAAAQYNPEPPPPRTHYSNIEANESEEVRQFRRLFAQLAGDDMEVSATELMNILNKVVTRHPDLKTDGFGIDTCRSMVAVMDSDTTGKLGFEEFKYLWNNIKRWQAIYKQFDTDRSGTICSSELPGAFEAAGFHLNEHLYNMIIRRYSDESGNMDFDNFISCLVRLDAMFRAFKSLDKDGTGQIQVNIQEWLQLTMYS
Outline: (§1)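 Human calpains 1, 2 and 9 preincubated with inhibitor at 25 °C in 50 mM Tris pH 7.5, 100 mM NaCl, 1 mM DTT; reaction started with 5-FAM/QXL 520 FRET peptide plus CaCl2 for activation. Fluorescence (490/520 nm) followed 10 min; rates from 1-5 min slopes fitted to 4-parameter logistic for IC50.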

Human Calpain 2/NS1 = target: T2, Human Calpain 2/NS1 (Homo sapiens, UniProt P17655); assay: Calpain inhibition continuous fluorescence (FRET) assay, Human Calpain 2/NS1; type: biochemical; conditions: read-out: Human Calpain 2/NS1 IC50
T2 sequence (P17655 1-700): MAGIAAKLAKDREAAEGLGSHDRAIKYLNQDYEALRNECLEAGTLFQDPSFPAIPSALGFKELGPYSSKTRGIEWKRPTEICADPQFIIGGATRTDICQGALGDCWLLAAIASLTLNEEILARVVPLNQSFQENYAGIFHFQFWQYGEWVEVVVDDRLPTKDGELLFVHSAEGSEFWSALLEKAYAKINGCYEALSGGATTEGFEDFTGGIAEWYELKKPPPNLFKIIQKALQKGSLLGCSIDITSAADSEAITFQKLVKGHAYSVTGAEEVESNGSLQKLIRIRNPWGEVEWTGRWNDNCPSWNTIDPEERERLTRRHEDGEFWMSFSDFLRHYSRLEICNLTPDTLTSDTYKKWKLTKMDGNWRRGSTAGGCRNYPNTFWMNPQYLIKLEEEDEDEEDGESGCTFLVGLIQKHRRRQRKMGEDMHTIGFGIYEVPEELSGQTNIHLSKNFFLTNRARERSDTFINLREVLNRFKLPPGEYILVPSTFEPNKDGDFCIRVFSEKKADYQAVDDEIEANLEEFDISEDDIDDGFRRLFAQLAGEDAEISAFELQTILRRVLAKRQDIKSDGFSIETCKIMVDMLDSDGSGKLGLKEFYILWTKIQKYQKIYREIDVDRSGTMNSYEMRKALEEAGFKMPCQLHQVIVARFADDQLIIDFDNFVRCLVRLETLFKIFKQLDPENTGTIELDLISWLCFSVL
T2 sequence (P04632 1-268 partner): T1 sequence (P04632 1-268 partner)
Outline: as §1

Human Calpain 9/NS1 = target: T3, Human Calpain 9/NS1 (Homo sapiens, UniProt O14815); assay: Calpain inhibition continuous fluorescence (FRET) assay, Human Calpain 9/NS1; type: biochemical; conditions: read-out: Human Calpain 9/NS1 IC50
T3 sequence (O14815 1-690): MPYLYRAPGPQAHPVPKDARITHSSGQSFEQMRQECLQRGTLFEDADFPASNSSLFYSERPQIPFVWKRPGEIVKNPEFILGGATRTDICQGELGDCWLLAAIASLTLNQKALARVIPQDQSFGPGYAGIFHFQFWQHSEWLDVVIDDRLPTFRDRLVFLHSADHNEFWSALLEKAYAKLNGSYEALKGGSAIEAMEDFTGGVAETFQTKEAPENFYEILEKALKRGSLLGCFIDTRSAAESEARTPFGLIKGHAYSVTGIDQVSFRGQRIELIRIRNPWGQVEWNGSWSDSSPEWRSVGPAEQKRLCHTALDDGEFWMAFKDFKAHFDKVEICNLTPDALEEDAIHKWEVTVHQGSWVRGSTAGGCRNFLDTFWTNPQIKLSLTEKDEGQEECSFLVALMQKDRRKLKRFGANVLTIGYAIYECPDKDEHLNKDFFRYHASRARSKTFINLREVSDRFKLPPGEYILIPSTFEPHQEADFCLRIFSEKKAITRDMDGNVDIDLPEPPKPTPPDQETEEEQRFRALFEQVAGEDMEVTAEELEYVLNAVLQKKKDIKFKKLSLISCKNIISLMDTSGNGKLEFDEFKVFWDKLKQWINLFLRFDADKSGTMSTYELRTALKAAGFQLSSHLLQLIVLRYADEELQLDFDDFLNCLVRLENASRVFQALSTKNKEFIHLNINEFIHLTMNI
T3 sequence (P04632 1-268 partner): T1 sequence (P04632 1-268 partner)
Outline: as §1

[2] = test system: Calpain activity in SH-SY5Y cells (SBDP-150); assay: SH-SY5Y Spectrin western blot assay (SBDP-150 breakdown product, A23187-induced); type: cell-based; conditions: Homo sapiens, SH-SY5Y cells, read-out: SH-SY5Y Spectrin IC50
[3] = test system: Calpain activity in SH-SY5Y cells; assay: SH-SY5Y + AMC fluorescence assay (Suc-LLVY-AMC substrate); type: cell-based; conditions: read-out: SH-SY5Y + AMC IC50
[4] = A23187-induced SBDP-150, western blot

Question: For `Cc1ccc(=O)n(-c2ccccc2)c1` [pirfenidone, reference compound], which “% reduction compared to vehicle” value [1] is on record?
Answer: −14%

Question: Which results are given for `NC(=O)C(=O)C(Cc1ccccc1)NC(=O)c1cn(C2CCCC2)nc1-c1ccccc1` (stereo not shown) [Compound 525, N-(4-amino-3,4-dioxo-1-phenylbutan-2-yl)-1-cyclopentyl-3-phenyl-1H-pyrazole-4-carboxamide]?
Answer: IC50 (Human Calpain 1/NS1): < 3 µM; IC50 (Human Calpain 2/NS1): < 3 µM; IC50 (Human Calpain 9/NS1): < 3 µM; IC50 [2, 4]: > 25 µM; IC50 [3]: < 10 µM

Question: How did the IC50 (Human Calpain 1/NS1) turn out when `Cc1nc(-c2ccccc2F)c(C(=O)N[C@H](Cc2ccccc2)C(=O)C(N)=O)o1` [Compound 592, (R)—N-(4-amino-3,4-dioxo-1-phenylbutan-2-yl)-4-(2-fluorophenyl)-2-methyloxazole-5-carboxamide] was run?
Answer: < 3 µM

Question: What about the IC50 (Human Calpain 2/NS1) of the same molecule?
Answer: < 3 µM

Question: What about the IC50 (Human Calpain 9/NS1) of the same molecule?
Answer: < 3 µM

Question: And the IC50 [2, 4]?
Answer: 10 to 25 µM

Question: And the IC50 [3]?
Answer: < 10 µM

Question: Which results are given for `Cc1c(F)cccc1-c1oncc1C(=O)NC(Cc1ccccc1)C(=O)C(N)=O` (stereo not shown) [Compound 594, N-(4-amino-3,4-dioxo-1-phenylbutan-2-yl)-5-(3-fluoro-2-methylphenyl)isoxazole-4-carboxamide]?
Answer: IC50 (Human Calpain 1/NS1): < 3 µM; IC50 (Human Calpain 2/NS1): < 3 µM; IC50 (Human Calpain 9/NS1): < 3 µM; IC50 [2, 4]: 10 to 25 µM; IC50 [3]: < 10 µM

Question: With `Cc1cc(C(=O)N[C@@H](Cc2ccccc2)C(=O)C(N)=O)c(-c2ccccc2)s1` [Compound 222, (S)—N-(4-amino-3,4-dioxo-1-phenylbutan-2-yl)-5-methyl-2-phenylthiophene-3-carboxamide] as the molecule, how does the IC50 (Human Calpain 1/NS1; Column A) read?
Answer: < 3 µM

Question: And the IC50 (Human Calpain 2/NS1; Column B)?
Answer: < 3 µM

Question: And the IC50 (Human Calpain 9/NS1; Column C)?
Answer: < 3 µM

Question: And the IC50 ([2]; Column D, A23187-induced SBDP-150)?
Answer: 10 to 25 µM

Question: What about the IC50 ([3]; Column E) of the same molecule?
Answer: > 25 µM

Question: With `CC(C)C[C@H](NC(=O)c1cn(C)nc1-c1ccccc1)C(=O)C(N)=O` [Compound 415, (S)—N-(1-amino-5-methyl-1,2-dioxohexan-3-yl)-1-methyl-3-phenyl-1H-pyrazole-4-carboxamide] as the molecule, how does the IC50 (Human Calpain 1/NS1) read?
Answer: < 3 µM

Question: And the IC50 (Human Calpain 2/NS1)?
Answer: < 3 µM

Question: And the IC50 (Human Calpain 9/NS1)?
Answer: < 3 µM

Question: What about the IC50 [2, 4] of the same molecule?
Answer: > 25 µM

Question: And the IC50 [3]?
Answer: > 25 µM

Question: What does the source list for `Cc1cc(C(=O)NC(Cc2ccccc2)C(=O)C(N)=O)n(-c2cccc(COCc3ccccc3)c2)n1` (stereo not shown) [Compound 438, N-(4-amino-3,4-dioxo-1-phenylbutan-2-yl)-1-(3-((benzyloxy)methyl)phenyl)-3-methyl-1H-pyrazole-5-carboxamide]?
Answer: IC50 (Human Calpain 1/NS1): < 3 µM; IC50 (Human Calpain 2/NS1): < 3 µM; IC50 (Human Calpain 9/NS1): < 3 µM; IC50 [2, 4]: 10 to 25 µM; IC50 [3]: 10 to 25 µM

Question: How did the IC50 (Human Calpain 1/NS1) turn out when `Cn1cc(C(=O)NC(Cc2ccccc2)C(=O)C(N)=O)c(-c2ccc3c(c2)OC(F)(F)O3)n1` (stereo not shown) [Compound 548, N-(4-amino-3,4-dioxo-1-phenylbutan-2-yl)-3-(2,2-difluorobenzo[d][1,3]dioxol-5-yl)-1-methyl-1H-pyrazole-4-carboxamide] was run?
Answer: < 3 µM

Question: What about the IC50 (Human Calpain 2/NS1) of the same molecule?
Answer: < 3 µM

Question: What about the IC50 (Human Calpain 9/NS1) of the same molecule?
Answer: < 3 µM

Question: And the IC50 [2, 4]?
Answer: > 25 µM

Question: What about the IC50 [3] of the same molecule?
Answer: > 25 µM

Question: With `Cc1ccc(F)cc1-c1nn(C(F)F)cc1C(=O)NC(Cc1ccccc1)C(=O)C(N)=O` (stereo not shown) [Compound 566, N-(4-amino-3,4-dioxo-1-phenylbutan-2-yl)-1-(difluoromethyl)-3-(5-fluoro-2-methylphenyl)-1H-pyrazole-4-carboxamide] as the molecule, how does the IC50 (Human Calpain 1/NS1) read?
Answer: < 3 µM

Question: And the IC50 (Human Calpain 2/NS1)?
Answer: < 3 µM

Question: And the IC50 (Human Calpain 9/NS1)?
Answer: < 3 µM

Question: What about the IC50 [2, 4] of the same molecule?
Answer: 10 to 25 µM

Question: What about the IC50 [3] of the same molecule?
Answer: < 10 µM

Question: For `NC(=O)C(=O)C(Cc1ccccc1)NC(=O)c1nsnc1-c1ccncc1` (stereo not shown) [Compound 371, N-(4-amino-3,4-dioxo-1-phenylbutan-2-yl)-4-(pyridin-4-yl)-1,2,5-thiadiazole-3-carboxamide], which IC50 (Human Calpain 1/NS1) is on record?
Answer: < 3 µM

Question: What about the IC50 (Human Calpain 2/NS1) of the same molecule?
Answer: < 3 µM

Question: And the IC50 (Human Calpain 9/NS1)?
Answer: < 3 µM

Question: What about the IC50 [2, 4] of the same molecule?
Answer: < 10 µM

Question: What about the IC50 [3] of the same molecule?
Answer: < 10 µM
